Laboratory results reported in ChEMBL document CHEMBL3217436, “Synthesis of new chromeno-annulated cis-fused pyrano[3,4-c]pyran derivatives via domino Knoevenagelhetero-DielsAlder reactions and their biological evaluation towards antiproliferative activity” (Medchemcomm, 2012).

Legend:
SK-N-SH = assay: Antiproliferative activity against human SK-N-SH cells after 48 hrs by MTT assay; assay type: functional, cell-based
MDA-MB-231 = assay: Antiproliferative activity against human MDA-MB-231 cells after 48 hrs by MTT assay; assay type: functional, cell-based; conditions: MDA-MB-231, 48 h
A549 = assay: Antiproliferative activity against human A549 cells after 48 hrs by MTT assay; assay type: functional, cell-based; conditions: A549, 48 h
MRC5 = assay: Antiproliferative activity against human MRC5 cells after 48 hrs by MTT assay; assay type: cell-based; conditions: MRC5, 48 h

IC50 (SK-N-SH) | IC50 (MDA-MB-231) | IC50 (A549) | SMILES | IC50 (MRC5)
1.06 µM | > 100 µM | 0.1 µM | Cc1oc2c3c(ccc2c(=O)c1C)OC[C@H]1[C@@H]3c2c(n(C)c(=O)n(C)c2=O)OC1(C)C | > 100 µM
10.5 µM | > 100 µM | > 100 µM | Cc1oc2c3c(ccc2c(=O)c1-c1ccccc1)OC[C@H]1[C@@H]3c2c(n(C)c(=O)n(C)c2=O)OC1(C)C | > 100 µM
> 100 µM | > 100 µM | > 100 µM | Cc1oc2c3c(ccc2c(=O)c1C)OC[C@H]1[C@@H]3C2=C(CCCC2=O)OC1(C)C | > 100 µM
> 100 µM | > 100 µM | > 100 µM | Cc1oc2c3c(ccc2c(=O)c1-c1ccccc1)OC[C@H]1[C@@H]3C2=C(CCCC2=O)OC1(C)C | > 100 µM
> 100 µM | > 100 µM | > 100 µM | Cc1oc2c3c(ccc2c(=O)c1C)OC[C@H]1[C@@H]3C2=C(CC(C)(C)CC2=O)OC1(C)C | > 100 µM
> 100 µM | > 100 µM | > 100 µM | Cc1oc2c3c(ccc2c(=O)c1-c1ccccc1)OC[C@H]1[C@@H]3C2=C(CC(C)(C)CC2=O)OC1(C)C | > 100 µM
> 100 µM | > 100 µM | 0.09 µM | Cc1oc2c3c(ccc2c(=O)c1C)OC[C@H]1[C@@H]3CC(=O)OC1(C)C | 0.6 µM
10.6 µM | > 100 µM | > 100 µM | Cc1nn(-c2ccccc2)c2c1[C@@H]1c3c(ccc4c(=O)c(C)c(C)oc34)OC[C@@H]1C(C)(C)O2 | > 100 µM
> 100 µM | > 100 µM | > 100 µM | Cc1nn(-c2ccccc2)c2c1[C@@H]1c3c(ccc4c(=O)c(-c5ccccc5)c(C)oc34)OC[C@@H]1C(C)(C)O2 | > 100 µM

Further lines, the molecule ahead of its results:

SMILES | IC50 (SK-N-SH) | IC50 (MDA-MB-231) | IC50 (A549) | IC50 (MRC5)
Cc1oc2c3c(ccc2c(=O)c1C)OC[C@H]1[C@@H]3c2c(c3ccccc3oc2=O)OC1(C)C | 1.05 µM | > 100 µM | 0.1 µM | 0.6 µM
Cc1coc2c3c(ccc2c1=O)OC[C@H]1[C@@H]3C2=C(CCCC2=O)OC1(C)C | > 100 µM | > 100 µM | > 100 µM | > 100 µM
Cc1coc2c3c(ccc2c1=O)OC[C@H]1[C@@H]3C2=C(CC(C)(C)CC2=O)OC1(C)C | > 100 µM | > 100 µM | > 100 µM | > 100 µM
Cc1coc2c3c(ccc2c1=O)OC[C@H]1[C@@H]3CC(=O)OC1(C)C | > 100 µM | > 100 µM | 11.2 µM | > 100 µM
CC(=O)C1=C(C)OC(C)(C)[C@H]2COc3ccc4c(=O)c(C)c(C)oc4c3[C@@H]12 | 10.7 µM | > 100 µM | > 100 µM | > 100 µM
CCOC(=O)C1=C(C)OC(C)(C)[C@H]2COc3ccc4c(=O)c(C)c(C)oc4c3[C@@H]12 | 10.8 µM | > 100 µM | 10.9 µM | 0.9 µM
